Measurements published in US20250230138A1, “COMPOUNDS HAVING A T-STRUCTURE FORMED BY AT LEAST FOUR CYCLES FOR USE IN THE TREATMENT OF CANCER AND OTHER INDICATIONS” (TheRas, Inc., priority 2022, published 2025).
Read-outs that look alike come from different tables or passages of the source.

Tests used:
[1] = biological target: Cys242 in human PIK3CA (157-299) (Homo sapiens (Human), UniProt P42336); test: Covalent modification assay using MALDI-TOF MS; format: biochemical; conditions: 4 h reaction time point
How it was run: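 PIK3CA (157-299), 3.33 or 1 μM in 20 mM HEPES, 150 mM NaCl, 2 mM MgCl2, pH 7.3, was incubated with compound at room temperature in the dark for 15 min, 30 min, 2 h or 4 h. Linear MALDI-TOF read-out; % modification = adduct peak height over summed heights of all protein species.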

pAKT in BT474 cells = test: Cell-based pAKT HTRF assay in BT474 cells; conditions: BT474 cells, 4 hr incubation, read-out: pAKT inhibition IC50 in BT474 cells
How it was run: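 The HTRF signal (excitation 320 nm, emission 615 nm) came from d2/Eu Cryptate antibodies added to lysates and incubated 4–24 h at room temperature. Those lysates were taken from cells treated for 4 hr with compound, top concentration 3 μM, in 0.25% DMSO.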

[2] = 3.33 μM protein target, 1:7.5 protein to compound ratio (compounds 1-852)
[3] = 1 μM protein target, 1:5 protein to compound ratio (compounds 853-1279)

Cys242 in human PIK3CA (157-299), sequence (P42336 157-299): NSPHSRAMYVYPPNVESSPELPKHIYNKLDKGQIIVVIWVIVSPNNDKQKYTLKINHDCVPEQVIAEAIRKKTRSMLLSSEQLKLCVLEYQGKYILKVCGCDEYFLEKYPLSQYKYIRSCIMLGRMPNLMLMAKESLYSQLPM

Structure (SMILES)	IC50 (pAKT in BT474 cells; Compounds 10-999)	IC50 (pAKT in BT474 cells; Compounds 1000-1279)	% of modification [1, 2]	% of modification [1, 3]
C=CC(=O)N1CCn2nc(-c3nc(N4CCC5(CC4)COC5)c4ccsc4c3-c3ccc(F)cc3OC(C)C)cc2C1 [Compound 207]	< 100 nM		A (percent of modification of PIK3CA protein ≥75%)	
C=CC(=O)N1CCn2nc(-c3nc(-c4cnn(C)c4)c4ccsc4c3-c3ccc(Cl)cc3F)cc2C1 [Compound 284]	100 to 1000 nM		A (percent of modification of PIK3CA protein ≥75%)	
C=CC(=O)N1CCc2nc(-c3nc(-c4cnn(C)c4N)c4ccsc4c3-c3c(F)cc(F)cc3OC(C)C)sc2C1 [Compound 351]	100 to 1000 nM		A (percent of modification of PIK3CA protein ≥75%)	
C=CC(=O)N1CC(n2cc(-c3nc(-c4cnn(CCO)c4)c4ccsc4c3-c3ccc(F)cc3OCCOC)cn2)C1 [Compound 233]	< 100 nM		A (percent of modification of PIK3CA protein ≥75%)	
C=CC(=O)N1CCc2ncc(-c3nc(-c4cnn(CC(F)F)c4)c4ccsc4c3-c3c(F)cc(F)cc3OCCOC)cc2C1 [Compound 385]	< 100 nM		A (percent of modification of PIK3CA protein ≥75%)	
C=CC(=O)N1CCn2nc(-c3nc(-c4ccc5c(c4)CCN(C)C5)c4ccsc4c3-c3ccc(F)cc3OC(C)C)nc2C1 [Compound 271]	< 100 nM		A (percent of modification of PIK3CA protein ≥75%)	
CC#CC(=O)N1CC(n2cc(-c3nc(-c4ccc5c(c4)CCNC5)c4ccsc4c3-c3ccc(F)cc3OC)cn2)C1 [Compound 113]	> 3000 nM		D (percent of modification <25%)	
C=CC(=O)N1CCC(n2cc(-c3nc(-c4ccc5c(c4)CNC(=O)C5)c4ccsc4c3-c3ccc(F)cc3)cn2)CC1 [Compound 69]	1000 to 3000 nM		A (percent of modification of PIK3CA protein ≥75%)	
C=CC(=O)N1CCc2ncc(-c3nc(-c4ccc5c(c4)CN(C)C5=O)c4ccsc4c3-c3c(F)cc(F)cc3OCCOC)cc2C1 [Compound 402]	< 100 nM		A (percent of modification of PIK3CA protein ≥75%)	
C=CC(=O)N1CCc2ncc(-c3nc(-c4ccc5c(c4)C(O)CC5)c4ccsc4c3-c3c(F)cc(F)cc3OCCOC)cc2C1 (centres unmarked) [Compound 397]	< 100 nM		A (percent of modification of PIK3CA protein ≥75%)	
C=CC(=O)N1CCc2nc(-c3nc(-c4ccc5c(c4)CCNC5)c4ccsc4c3-c3c(F)cc(F)cc3OCCO)sc2C1 [Compound 415]	100 to 1000 nM		A (percent of modification of PIK3CA protein ≥75%)	
C=CC(=O)N1CCC(n2cc(-c3nc(-c4cnn5c4C(=O)NCC5)c4ccsc4c3-c3ccc(F)cc3OCCOC)cn2)CC1 [Compound 230]	100 to 1000 nM		B (50%<percent of modification <75%)	
C=CC(=O)N1CCn2nc(-c3nc(-c4cnn(C)c4)c4ccsc4c3-c3ccc(F)cc3OC(F)F)cc2C1 [Compound 224]	< 100 nM		A (percent of modification of PIK3CA protein ≥75%)	
C=CC(=O)N1CCc2ncc(-c3nc(-c4cncc(Cl)c4)c4ccsc4c3-c3c(F)cc(F)cc3OCCOC)cc2C1 [Compound 377]	< 100 nM		A (percent of modification of PIK3CA protein ≥75%)	
C=CC(=O)N1CCc2ncc(-c3nc(N4CCC5(CC4)COC5)c4ccsc4c3-c3c(F)cc(F)cc3OC(C)C)cc2C1 [Compound 423]	100 to 1000 nM		A (percent of modification of PIK3CA protein ≥75%)	
C=CC(=O)N1CCn2nc(-c3nc(-c4ccc5c(c4)CCNC5=O)c4ccsc4c3-c3ccc(F)cc3OC(C)C)nc2C1 [Compound 219]	< 100 nM		A (percent of modification of PIK3CA protein ≥75%)	
C=CC(=O)N1CC[C@@H](n2cc(-c3nc(-c4cncc(C#N)c4)c4ccsc4c3-c3c(F)cc(F)cc3OC(C)C)cn2)C1 [Compound 388]	100 to 1000 nM		A (percent of modification of PIK3CA protein ≥75%)	

Continued, in another order:

IC50 (pAKT in BT474 cells; Compounds 10-999)	IC50 (pAKT in BT474 cells; Compounds 1000-1279)	Structure (SMILES)	% of modification [1, 2]	% of modification [1, 3]
< 100 nM		C=CC(=O)N1Cc2cc(-c3nc(-c4ccc5nn(C)cc5c4)c4ccsc4c3-c3c(F)cc(F)cc3OC[C@@H](C)O)nn2C[C@H]1C [Compound 754]	A (percent of modification of PIK3CA protein ≥75%)	
100 to 1000 nM		C=C(F)C(=O)N1CCn2nc(-c3nc(-c4ccc5c(c4)CNC5=O)c4ccsc4c3-c3c(Cl)cccc3OC(C)C)cc2C1 [Compound 472]	B (50%<percent of modification <75%)	
100 to 1000 nM		C=C(F)C(=O)N1Cc2cc(-c3nc(-c4ccc5c(c4)CCN(C)C5)c4ccsc4c3-c3c(F)cc(F)cc3OC[C@@H](C)O)nn2C[C@H]1C [Compound 575]	D (percent of modification <25%)	
	> 1000 nM	COCCOc1cc(F)cc(F)c1-c1c(-c2cc3n(n2)CCN(C(=O)C(F)Cl)[C@@H]3C)nc(-c2ccc3c(cnn3C)c2)c2ccsc12 (some centres unmarked) [Compound 1228]		D (percent of modification <25%)
	< 100 nM	C=CC(=O)N1CCn2nc(-c3nc(-c4ccc5c(c4)CN(CC(F)F)CC5)c4ccsc4c3-c3c(F)cc(F)cc3OCCO)cc2C1C (centres unmarked) [Compound 1249]		A (percent of modification of PIK3CA protein ≥75%)
< 100 nM		C=CC(=O)N1CCn2nc(-c3nc(-c4ccc5c(c4)CCN(C)C5)c4ccsc4c3-c3c(F)cc(F)cc3OC(C)C)cc2[C@H]1C [Compound 507]	A (percent of modification of PIK3CA protein ≥75%)	
< 100 nM		C=CC(=O)N1Cc2cc(-c3nc(-c4cnn(C)c4)c4ccsc4c3-c3c(F)cc(F)cc3OCCOC)nn2C[C@H]1C [Compound 577]	A (percent of modification of PIK3CA protein ≥75%)	
100 to 1000 nM		C=CC(=O)N1CCc2nc(-c3nc(-c4ccc5c(c4)CCNC5)c4ccsc4c3-c3c(F)cc(F)cc3OCC)sc2C1 [Compound 430]	A (percent of modification of PIK3CA protein ≥75%)	
100 to 1000 nM		C=CC(=O)N1Cc2cc(-c3nc(-c4cnn(C)c4)c4ccsc4c3-c3c(F)cc(F)cc3OC[C@@H](C)O)nn2[C@@H](C)C1 [Compound 581]	D (percent of modification <25%)	
100 to 1000 nM		C=CC(=O)N1CCc2nc(-c3nc(-c4ccc5c(c4)CCN(C)C5)c4ccsc4c3-c3c(F)cc(F)cc3OC(C)C)sc2C1 (single isomer, unassigned) [Compound 447]	D (percent of modification <25%)	
< 100 nM		C=CC(=O)N1CCn2nc(-c3nc(-c4ccc5c(c4)CCN(C)C5)c4ccsc4c3-c3c(F)cc(F)cc3OCCOC)cc2[C@@H]1C [Compound 544]	A (percent of modification of PIK3CA protein ≥75%)	
	> 1000 nM	C=CC(=O)N1CCn2nc(-c3nc(-c4ccc5c(cnn5C)c4)c4ccsc4c3-c3c(F)cc(F)cc3OCCOC)cc2[C@H]1C [Compound 1131]		D (percent of modification <25%)
	< 100 nM	C=CC(=O)N1CCn2nc(-c3nc(-c4ccc5c(c4)CN(C)C(=O)C54CC4)c4ccsc4c3-c3c(F)cc(F)cc3OCCO)cc2[C@H]1C [Compound 1133]		A (percent of modification of PIK3CA protein ≥75%)
< 100 nM		C=CC(=O)N1CCc2ncc(-c3nc(-c4cnc(C)o4)c4ccsc4c3-c3c(F)cc(F)cc3OC(C)C)cc2C1 [Compound 455]	A (percent of modification of PIK3CA protein ≥75%)	
< 100 nM		C=CC(=O)N1Cc2cc(-c3nc(-c4cnn(CC(C)(C)O)c4)c4ccsc4c3-c3c(F)cc(F)cc3OC(C)C)nn2CC1C (centres unmarked) [Compound 490]	A (percent of modification of PIK3CA protein ≥75%)	
< 100 nM		C=CC(=O)N1Cc2cc(-c3nc(-c4cn(C)cn4)c4ccsc4c3-c3c(F)cc(F)cc3OC(C)C)nn2CC1C (centres unmarked) [Compound 496]	A (percent of modification of PIK3CA protein ≥75%)	
< 100 nM		C=CC(=O)N1Cc2cc(-c3nc(-c4ccc5ncn(C)c5c4)c4ccsc4c3-c3c(F)cc(F)cc3OC(C)C)nn2CC1C (centres unmarked) [Compound 488]	A (percent of modification of PIK3CA protein ≥75%)	
< 100 nM		C=CC(=O)N1Cc2cc(-c3nc(-c4cnn(C)c4)c4ccsc4c3-c3c(F)cc(F)cc3OCCO)nn2[C@@H](C)C1 [Compound 519]	A (percent of modification of PIK3CA protein ≥75%)	
< 100 nM		C=CC(=O)N1Cc2cc(-c3nc(-c4ccc5c(c4)N(C)C(=O)C5)c4ccsc4c3-c3c(F)cc(F)cc3OCCOC)nn2C[C@H]1C [Compound 692]	A (percent of modification of PIK3CA protein ≥75%)	
	< 100 nM	C=CC(=O)N1CCn2nc(-c3nc(-c4ccc5c(c4)CCN(CC(F)F)CC5)c4ccsc4c3-c3c(F)cc(F)cc3OCCOC)cc2C1C (centres unmarked) [Compound 1122]		A (percent of modification of PIK3CA protein ≥75%)
< 100 nM		C=CC(=O)N1CCn2nc(-c3nc(-c4cnc(C)nc4)c4ccsc4c3-c3c(F)cc(F)cc3OCC(C)O)cc2C1C (centres unmarked) [Compound 771]	A (percent of modification of PIK3CA protein ≥75%)	
< 100 nM		C=CC(=O)N1CCn2nc(-c3nc(-c4ccc5cn(C)nc5c4)c4ccsc4c3-c3c(F)cc(F)cc3OCCOC)cc2[C@H]1C [Compound 747]	A (percent of modification of PIK3CA protein ≥75%)	
< 100 nM		C=CC(=O)N1Cc2cc(-c3nc(-c4cnccn4)c4ccsc4c3-c3c(F)cc(F)cc3OCCOC)nn2C[C@H]1C [Compound 840]	A (percent of modification of PIK3CA protein ≥75%)	
